This passage reports IC50 results from patent US8378104B2 (OSI Pharmaceuticals, LLC, priority 2010, dated 2013).

The target of one assay is T1, TAK1-TAB1 fusion protein (Homo sapiens, UniProt O43318).
T1 construct: purchased Carna
T1 sequence (O43318 with tags, fused parts or gaps limits assumed): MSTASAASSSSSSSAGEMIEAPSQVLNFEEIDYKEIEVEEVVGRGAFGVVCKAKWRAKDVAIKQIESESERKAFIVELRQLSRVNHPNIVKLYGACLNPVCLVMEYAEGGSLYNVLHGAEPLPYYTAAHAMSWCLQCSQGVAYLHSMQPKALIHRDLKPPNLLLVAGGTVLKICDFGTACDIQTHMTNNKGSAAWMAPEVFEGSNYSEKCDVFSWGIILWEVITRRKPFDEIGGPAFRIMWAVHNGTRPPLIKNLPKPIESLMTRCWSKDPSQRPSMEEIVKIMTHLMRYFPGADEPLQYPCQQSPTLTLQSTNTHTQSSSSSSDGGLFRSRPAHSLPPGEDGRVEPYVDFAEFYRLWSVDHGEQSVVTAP
As to the kind of experiment: TAK1 biochemical assay (AlphaScreen, GST-MAP2K7 substrate).

Another assay relates to pJNK in HCT-116 cells. The assay is described as follows: Phospho-JNK (Thr183/Tyr185) Meso Scale ELISA assay, TNFα-stimulated HCT-116 cells. It counts as cell-based. Conditions: Homo sapiens, read-out: mean HCT-116 pJNK ELISA IC50 (Col. B). In outline:
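Meso Scale ELISA read of phospho-JNK (Thr183/Tyr185) in lysed HCT-116 cells. Cells were serum-reduced to 1% FCS for 2 hours, exposed to test drug for 4 hrs at 37° C, then given 10 ng/mL TNFα (final) for 10 minutes before lysis.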

[1] abbreviates: TAK1-TAB1 fusion protein, GST-MAP2K7 substrate, read-out: mean TAK1 IC50 (Col. A).

For orientation: IC50 means the concentration that inhibits the measured activity by half.

Counter-ions that a name gives are not always drawn. Like-named read-outs stand apart in the source and are kept apart here.

In the case of `CC(=O)N1CCC(n2cc(-c3cnc(N)c4oc(-c5cn(C)c6cnccc56)cc34)cn2)CC1` [Example 266, 1-(4-{4-[7-amino-2-(1-methyl-1H-pyrrolo[2,3-c]pyridin-3-yl)-furo[2,3-c]pyridin-4-yl]-pyrazol-1-yl}-piperidin-1-yl)-ethanone], the IC50 is less than 100 nM at TAK1-TAB1 fusion protein (setting [1]) and 100 to 1000 nM with pJNK in HCT-116 cells.

For `Nc1ncc(-c2cnn(C3CCN(C(=O)CCc4ccccc4)CC3)c2)c2cc(-c3csc4cnccc34)oc12` [Example 331, 1-{4-[4-(7-amino-2-thieno[2,3-c]pyridin-3-yl-furo[2,3-c]pyridin-4-yl)-pyrazol-1-yl]-piperidin-1-yl}-3-phenyl-propan-1-one], the IC50 at TAK1-TAB1 fusion protein (setting [1]) and in the assay with pJNK in HCT-116 cells was 100 to 1000 nM in each case.

Take `CN(C)C(=O)CCn1cc(-c2cnc(N)c3oc(-c4csc5cnccc45)cc23)cn1` [Example 346, 3-[4-(7-amino-2-thieno[2,3-c]pyridin-3-yl-furo[2,3-c]pyridin-4-yl)-pyrazol-1-yl]-N,N-dimethyl-propionamide]: the IC50 lay in the range of 100 to 1000 nM on TAK1-TAB1 fusion protein (setting [1]) and 1000 to 10000 nM with pJNK in HCT-116 cells.

For `CC(C)(O)C#Cc1sc2cnccc2c1-c1cc2c(-c3cnn([C@H]4CC[C@H](O)CC4)c3)cnc(N)c2o1` [Example 271, trans-4-(4-{7-amino-2-[2-(3-hydroxy-3-methylbut-1-yn-1-yl)thieno[2,3-c]pyridin-3-yl]furo[2,3-c]pyridin-4-yl}-1H-pyrazol-1-yl)cyclohexanol trifluoroacetate], the concentration for half-maximal inhibition (IC50) on TAK1-TAB1 fusion protein (setting [1]) was 100 to 1000 nM; in the assay on pJNK in HCT-116 cells it was 1000 to 10000 nM.

Turning to `Nc1ncc(-c2cnn([C@H]3CC[C@H](O)CC3)c2)c2cc(-c3cccc4ncsc34)oc12` [Example 231, trans-4-{4-[7-amino-2-(1,3-benzothiazol-7-yl)furo[2,3-c]pyridin-4-yl]-1H-pyrazol-1-yl}cyclohexanol diformate salt], the half-maximal inhibitory concentration (IC50) on TAK1-TAB1 fusion protein (setting [1]) and in the assay on pJNK in HCT-116 cells was less than 100 nM in each case.

For the compound `Nc1ncc(-c2cnn(C3CCC(O)C3)c2)c2cc(-c3csc4cnccc34)oc12` (stereo not shown) [Example 306, 3-[4-(7-amino-2-thieno[2,3-c]pyridin-3-yl-furo[2,3-c]pyridin-4-yl)-pyrazol-1-yl]-cyclopentanol], the IC50 on TAK1-TAB1 fusion protein (setting [1]) was less than 100 nM; in the assay with pJNK in HCT-116 cells it was 100 to 1000 nM.

In the case of `Nc1ncc(-c2cnn([C@H]3CC[C@H](O)CC3)c2)c2cc(-c3cccc4sncc34)oc12` [Example 242, trans-4-{4-[7-amino-2-(1,2-benzothiazol-4-yl)furo[2,3-c]pyridin-4-yl]-1H-pyrazol-1-yl}cyclohexanol Diformate Salt], the concentration for half-maximal inhibition (IC50) on TAK1-TAB1 fusion protein (setting [1]) and in the assay on pJNK in HCT-116 cells was less than 100 nM each time.

For the compound `Nc1ncc(-c2cnn([C@@H]3CCC[C@H](O)C3)c2)c2cc(-c3csc4cnccc34)oc12` (relative stereo) [Example 310, cis-3-[4-(7-amino-2-thieno[2,3-c]pyridin-3-yl-furo[2,3-c]pyridin-4-yl)-pyrazol-1-yl]-cyclohexanol], the IC50 at TAK1-TAB1 fusion protein (setting [1]) and in the assay with pJNK in HCT-116 cells was less than 100 nM each time.

Consider `N#Cc1sc2cnccc2c1-c1cc2c(-c3cnn([C@H]4CC[C@H](O)CC4)c3)cnc(N)c2o1` [Example 270, 3-{7-amino-4-[1-(trans-4-hydroxycyclohexyl)-1H-pyrazol-4-yl]furo[2,3-c]pyridin-2-yl}thieno[2,3-c]pyridine-2-carbonitrile trifluoroacetate], for which the IC50 on TAK1-TAB1 fusion protein (setting [1]) was 100 to 1000 nM; in the assay with pJNK in HCT-116 cells it was less than 100 nM.

With `CC(=O)N1CCC(n2cc(-c3cnc(N)c4oc(-c5cccc6sncc56)cc34)cn2)CC1` [Example 241, 1-(4-{4-[7-amino-2-(1,2-benzothiazol-4-yl)furo[2,3-c]pyridin-4-yl]-1H-pyrazol-1-yl}piperidin-1-yl)ethanone diformate Salt], the half-maximal inhibitory concentration (IC50) at TAK1-TAB1 fusion protein (setting [1]) and in the assay with pJNK in HCT-116 cells was less than 100 nM in each case.

As for `Cc1ncc(-c2cnc(N)c3oc(-c4csc5cnccc45)cc23)s1` [Example 388, 4-(2-methyl-1,3-thiazol-5-yl)-2-(thieno[2,3-c]pyridin-3-yl)furo[2,3-c]pyridin-7-amine trifluoroacetate], the IC50 on TAK1-TAB1 fusion protein (setting [1]) and in the assay on pJNK in HCT-116 cells was 100 to 1000 nM each time.

In the case of `Nc1ncc(-c2cnn([C@H]3CC[C@H](O)CC3)c2)c2c(Cl)c(-c3cccc4cnsc34)oc12` [Example 285, trans-4-{4-[7-amino-2-(1,2-benzothiazol-7-yl)-3-chlorofuro[2,3-c]pyridin-4-yl]-1H-pyrazol-1-yl}cyclohexanol trifluoroacetic Acid Salt], the IC50 on TAK1-TAB1 fusion protein (setting [1]) and in the assay with pJNK in HCT-116 cells was 100 to 1000 nM each time.

`CC(=O)N1CCC(n2cc(-c3cnc(N)c4oc(-c5csc6cnc(O)cc56)cc34)cn2)CC1` [Example 251, 1-(4-{4-[7-amino-2-(5-hydroxythieno[2,3-c]pyridin-3-yl)furo[2,3-c]pyridin-4-yl]-1H-pyrazol-1-yl}piperidin-1-yl)ethanone bis(trifluoroacetate)]: the figures for the IC50 on TAK1-TAB1 fusion protein (setting [1]) and in the assay with pJNK in HCT-116 cells were 100 to 1000 nM and 1000 to 10000 nM, respectively.

In the case of `CC(=O)N1CCC(n2cc(-c3cnc(N)c4oc(-c5c(F)ccc6nnsc56)cc34)cn2)CC1` [Example 273, 1-(4-{4-[7-amino-2-(6-fluoro-1,2,3-benzothiadiazol-7-yl)furo[2,3-c]pyridin-4-yl]-1H-pyrazol-1-yl}piperidin-1-yl)ethanone], the IC50 on TAK1-TAB1 fusion protein (setting [1]) is less than 100 nM; in the assay on pJNK in HCT-116 cells, 100 to 1000 nM.

As for `CC(=O)N1CCC(n2cc(-c3cnc(N)c4oc(-c5nn(C)c6cnccc56)cc34)cn2)CC1` [Example 363, 1-(4-{4-[7-amino-2-(1-methyl-1H-pyrazolo[3,4-c]pyridin-3-yl)furo[2,3-c]pyridin-4-yl]-1H-pyrazol-1-yl}piperidin-1-yl)ethanone trifluoroacetic acid salt], the IC50 at TAK1-TAB1 fusion protein (setting [1]) was less than 100 nM; in the assay with pJNK in HCT-116 cells it was 100 to 1000 nM.

Turning to `Nc1ncc(-c2cnn([C@H]3CC[C@H](O)CC3)c2)c2cc(-c3ccccc3)oc12` [Example 368, trans-4-[4-(7-amino-2-phenylfuro[2,3-c]pyridin-4-yl)-1H-pyrazol-1-yl]cyclohexanol], the IC50 on TAK1-TAB1 fusion protein (setting [1]) and in the assay with pJNK in HCT-116 cells was 100 to 1000 nM throughout.

On to `Nc1ncc(-c2cnn([C@@H]3C[C@H]4CC[C@@H](C3)N4C=O)c2)c2cc(-c3cccc4cnsc34)oc12` [Example 326, (3-exo)-3-{4-[7-amino-2-(1,2-benzisothiazol-7-yl)furo[2,3-c]pyridin-4-yl]-1H-pyrazol-1-yl}-8-azabicyclo[3.2.1]octane-8-carbaldehyde], for which the IC50 at TAK1-TAB1 fusion protein (setting [1]) and in the assay with pJNK in HCT-116 cells was less than 100 nM throughout.

In the case of `Nc1ncc(-c2ccoc2)c2cc(-c3csc4cnccc34)oc12` [Example 392, 4-(furan-3-yl)-2-(thieno[2,3-c]pyridin-3-yl)furo[2,3-c]pyridin-7-amine trifluoroacetate], the results for the IC50 at TAK1-TAB1 fusion protein (setting [1]) and with pJNK in HCT-116 cells were 100 to 1000 nM and 1000 to 10000 nM, respectively.

As to `CC(=O)N1[C@@H]2CC[C@H]1C[C@H](n1cc(-c3cnc(N)c4oc(-c5cccc6cnsc56)cc34)cn1)C2` [Example 327, 1-[(3-exo)-3-{4-[7-amino-2-(1,2-benzisothiazol-7-yl)furo[2,3-c]pyridin-4-yl]-1H-pyrazol-1-yl}-8-azabicyclo[3.2.1]oct-8-yl]ethanone], the IC50 at TAK1-TAB1 fusion protein (setting [1]) and with pJNK in HCT-116 cells was less than 100 nM each time.

Turning to `Nc1ncc(-c2cnn([C@H]3CC[C@H](O)CC3)c2)c2c(Cl)c(-c3cccc4nnsc34)oc12` [Example 286, trans-4-{4-[7-amino-2-(1,2,3-benzothiadiazol-7-yl)-3-chlorofuro[2,3-c]pyridin-4-yl]-1H-pyrazol-1-yl}cyclohexanol], the IC50 on TAK1-TAB1 fusion protein and in the assay on pJNK in HCT-116 cells was less than 100 nM in each case.
